Results as given in patent US7528135B2, “Pyridine derivatives as H3 antagonists” (Hoffmann-La Roche Inc., priority 2004, dated 2009).

Target: T1, histamine 3 receptor (H3R) (Homo sapiens, UniProt Q9Y5N1)
T1 construct: expressed in transfected cells; host or cells: CHO cells (HR3-CHO cell line), membrane preparation
Experiment: Binding assay with 3H-(R)α-methylhistamine (competition binding, human HR3-CHO membranes)
Conditions: competition against 3H(R)α-Methylhistamine (1 nM = Kd), membrane of the human HR3-CHO cell line; Ki calculated from IC50 by Cheng-Prusoff
Protocol: Binding Assay with ^3H-(R)α-methylhistamine
Saturation binding experiments were performed using HR3-CHO membranes prepared as described in Takahashi, K, Tokita, S., Kotani, H. (2003) J. Pharmacol. Exp. Therapeutics 307, 213-218.
An appropriate amount of membrane (60 to 80 μg protein/well) was incubated with increasing concentrations of ^3H(R)α-Methylhistamine di-hydrochloride (0.10 to 10 nM). Non specific binding was determined using a 200 fold excess of cold (R)α-Methylhistamine dihydrobromide (500 nM final concentration). The incubation was carried out at room temperature (in deep-well plates shaking for three hours). The final volume in each well was 250 μl. The incubation was followed by rapid filtration on GF/B filters (pre-soaked with 100 μl of 0.5% PEI in Tris 50 mM shaking at 200 rpm for two hours). The filtration was made using a cell-harvester and the filter plates were then washed five times with ice cold washing buffer containing 0.5 M NaCl. After harvesting, the plates were dried at 55° C. for 60 min, then we added scintillation fluid (Microscint 40, 40 microl in each well) and the amount of radioactivity on the filter was determined in Packard top-counter after shaking the plates for two hours at 200 rpm at room temperature.
Binding Buffer: 50 mM Tris-HCl pH 7.4 and 5 mM MgCl2x6H2O pH 7.4. Washing Buffer: 50 mM Tris-HCl pH 7.4 and 5 mM MgCl2x6H2O and 0.5 M NaCl pH 7.4.
Indirect measurement of affinity of H3R inverse agonists: twelve increasing concentrations (ranging from 10 μM to 0.3 nM) of the selected compounds were always tested in competition binding experiments using membrane of the human HR3-CHO cell line. An appropriate amount of protein, e.g. approximately 500 cpm binding of RAMH at Kd, were incubated for 1 hour at room temperature in 250 μl final volume in 96-well plates in presence of ^3H(R)α-Methylhistamine (1 nM final concentration=Kd). […]
All compounds were tested at a single concentration in duplicates. […] Ki's were calculated from IC50 based on Cheng-Prusoff equation (Cheng, Y, Prusoff, W H (1973) Biochem Pharmacol 22, 3099-3108).

T1 sequence (Q9Y5N1 whole entry): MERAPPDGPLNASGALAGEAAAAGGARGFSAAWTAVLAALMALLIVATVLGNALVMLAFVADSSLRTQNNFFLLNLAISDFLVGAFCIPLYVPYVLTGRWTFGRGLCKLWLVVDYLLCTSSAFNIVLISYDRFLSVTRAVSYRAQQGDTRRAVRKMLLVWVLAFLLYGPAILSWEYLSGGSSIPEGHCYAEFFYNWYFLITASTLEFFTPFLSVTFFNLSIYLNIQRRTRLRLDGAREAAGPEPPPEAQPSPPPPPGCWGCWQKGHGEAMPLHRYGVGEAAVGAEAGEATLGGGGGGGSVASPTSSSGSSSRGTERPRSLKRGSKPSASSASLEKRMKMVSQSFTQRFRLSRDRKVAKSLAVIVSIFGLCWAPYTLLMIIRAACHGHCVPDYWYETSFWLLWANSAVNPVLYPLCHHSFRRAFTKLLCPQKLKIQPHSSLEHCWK

Ki [nM]	SMILES
40	COc1ccc(CC(=O)Nc2ccc(N3CCN(C4CCCC4)CC3)nc2)cc1OC [Example 53, N-[6-(4-cyclopentyl-piperazin-1-yl)-pyridin-3-yl]-2-(3,4-dimethoxy-phenyl)-acetamide]
39	CCN1CCN(c2ccc(NC(=O)NCc3ccccc3)cn2)CC1 [Example 3, 1-benzyl-3-[6-(4-ethyl-piperazin-1-yl)-pyridin-3-yl]-urea]
81	CN(C)S(=O)(=O)Nc1ccc(N2CCN(C3CCCC3)CC2)nc1 [Example 34, N-[6-(4-cyclopentyl-piperazin-1-yl)-pyridin-3-yl]-diemethylaminosulfonamide]
